How the values were obtained:
Assay type in all cases: cell-based
HeLa cells [1] = assay: mitotic index assay (phospho-Histone H3) in HeLa cells; settings: 10-25 μM, 7 h
HeLa cells [2] = assay: mitotic defect phenotypes by immunofluorescence; settings: 10 μM, 7 h
Outline: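 HeLa cells on poly-L-lysine coverslips treated 7 h, fixed in 4% formaldehyde/PHEM at 37 °C. Immunostained for pericentrin and α-tubulin with DAPI for DNA; spindle organisation scored by fluorescence microscopy against DMSO controls.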

Plk1 = biological target: T1, Plk1 (Homo sapiens, UniProt P53350); assay: localization of Plk1 in mitotic cells; settings: up to 100 μM, data not shown
T1 construct: localization of Plk1-GFP or endogenous Plk1 from mitotic centrosomes, kinetochores or the cytokinetic midbody; endogenous in cells
T1 sequence (P53350 whole entry): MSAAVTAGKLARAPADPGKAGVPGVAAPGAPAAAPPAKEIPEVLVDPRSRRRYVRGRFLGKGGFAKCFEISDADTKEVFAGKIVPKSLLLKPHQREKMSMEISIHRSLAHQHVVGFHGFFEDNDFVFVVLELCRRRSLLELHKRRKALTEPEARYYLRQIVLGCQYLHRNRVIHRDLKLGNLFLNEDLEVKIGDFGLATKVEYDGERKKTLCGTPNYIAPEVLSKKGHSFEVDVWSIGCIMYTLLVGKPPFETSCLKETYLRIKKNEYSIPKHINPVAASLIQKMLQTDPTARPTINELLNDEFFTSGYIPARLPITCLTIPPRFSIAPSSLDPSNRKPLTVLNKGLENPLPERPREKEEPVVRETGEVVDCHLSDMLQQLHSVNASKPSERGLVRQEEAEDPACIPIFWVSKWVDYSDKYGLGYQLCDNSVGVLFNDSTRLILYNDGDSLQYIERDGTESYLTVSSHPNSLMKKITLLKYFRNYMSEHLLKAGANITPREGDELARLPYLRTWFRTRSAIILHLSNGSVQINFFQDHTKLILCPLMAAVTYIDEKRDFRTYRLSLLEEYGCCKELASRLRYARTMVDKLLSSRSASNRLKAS

Plk1-Map interaction [3] = biological target: T2, Plk1-Map interaction (Homo sapiens, UniProt P53350); assay: BRET Plk1-Map, stable HEK293T Plk1-Luc/GFP-Map cell line; design: cDNAs for the human full length Plk1; expressed in transfected cells
T2 sequence (P53350 whole entry): as above
From the text: To develop a cell-based assay for the identification of Plk1 interaction inhibitors, we used Bioluminescence Resonance Energy Transfer (BRET)[42][43]. The assay monitors the interaction in HEK293T cells between Plk1 and Map205, a protein that we previously identified as an interactor of Drosophila Polo (Plk1 ortholog) on its PBD[44]. Although no ortholog of Drosophila Map205 has been found in vertebrates, this protein robustly interacts with vertebrate Plk1. […] Importantly, crystallography with zebrafish Plk1 has recently shown that Map205 nevertheless docks in the canonical phosphopeptide binding site of the PBD, with the natural phospho-mimetic Glu314 residue (Fig. 1A)[45]. In our assay, human Plk1 and a fragment of Drosophila Map205 (Map205_254-416 = Map) are respectively fused to Renilla luciferase II (Luc) and GFP10 (GFP), giving rise to energy transfer when the proteins are in close proximity (Fig. 1B). […] All combinations of Plk1 and Map tagged with Luc and GFP were tested (Supplementary Fig. S1). The Plk1-Luc/GFP-Map combination was selected because it yielded the highest BRET dynamic window. We then generated clonal stable cell lines co-expressing these two fusion proteins. These cell lines behaved very similarly to each other in BRET, and we selected one line that gave a high and reproducible BRET signal, with a Z′ score of 0.78, indicative of a robust assay for the purpose of a chemical screen (Supplementary Fig. S1).
We used our cell-based assay to screen a library of 112 983 compounds available in-house at IRIC’s High-Throughput Screening (HTS) platform (see Materials & Methods). Compounds were tested on cells in 384-well plates at concentrations between 10 μM and 25 μM, depending on their concentration in the original stocks solutions. BRET readings were taken 2 hours after treatment. Results obtained show a tight, close to normal distribution centered around zero inhibition relative to DMSO-treated controls (Fig. 1D). Compounds inducing at least 30% BRET inhibition were selected. From these, auto-fluorescent compounds and those that induced more than 90% reduction in RLucII luminescence were removed, leaving 800 primary hits, that we then re-tested using the same assay. In parallel, we tested these compounds in a control BRET assay for an unrelated pair of interacting proteins (BRAF-CRAF[46]) to exclude false-positive compounds that could reduce the BRET signal by interfering with light or by modifying the activity of GFP or Luc.
For BRET on transiently transfected cells, 48 hours after the transfection, medium was removed, cells were washed twice with PBS, and then Tyrode solution (140 mM NaCl, 2.7 mM KCl, 12 mM NaHCO3, 5.6 mM D-glucose, 0.49 mM MgCl2, 0.37 mM NaH2PO4, 25 mM HEPES, pH 7.4, where 1 mM CaCl2 was freshly added) was added to the cells. Total fluorescence was first measured using a FlexStation II microplate reader (Molecular Devices), where the GFP10 was excited at 400 nm and read at 510 nm. Then, cells were treated for 5 minutes with 2.5 μM coelenterazine 400a (Gold Technology) before reading BRET2 using the Mithras LB940 microplate reader (Berthold Technologies). BRET2 signal corresponds to the light emitted by the GFP10 acceptor constructs (515 nm ± 20 nm) divided by the light emitted by the RlucII donor constructs (400 nm ± 70 nm). Net BRET2 was calculated by subtracting the background BRET ratio of the RLucII plasmid alone from the BRET ratio obtained by the two BRET partners. The Net BRET2 was plotted according to the GFP10/RLucII ratio, which was obtained by dividing the total fluorescence by the RLucII emission.
For the high throughput chemical screen, cells were amplified and frozen as multiple 1 ml aliquots containing 25 millions of stable HEK293T Plk1-Luc/GFP-Map cells to ensure that cells at the same passage number are used during the screen. […] Five days later, cells were counted and re-suspended in Tyrode solution. […]

Plk1-Map interaction [4] = biological target: T2, Plk1-Map interaction; assay: BRET Plk1-Map, transient Luc-Map/Plk1-GFP in HEK293T; design: cDNAs for the human full length Plk1; expressed in transfected cells; settings: confirmation screen
Procedure: For the confirmation screen, the same procedure as for the primary screen was followed, except that HEK293T cells were also seeded at 6.25 millions of cells per simple CellStack on day 1 for transient transfections. These cells were transfected on day 3 with Luc-Map (5 μg) and Plk1-GFP (25 μg) pIRESHyg3 plasmids using polyethylenimine (PEI). To identify false-positives compounds, Luc-CRAF (4 μg) and GFP-BRAF (20 μg) plasmids were also transfected with PEI following the published procedure.

- effect on localization of Plk1 in mitotic cells (Plk1): did not result in a significant decrease
- Primary screen Plk1-Map (stable) % Inihibition (Plk1-Map interaction [3]; 10-25 μM, 2 h): 67.34%
- Primary screen Plk1-Map (stable) % Quench RLuc (Plk1-Map interaction [3]; 10-25 μM, 2 h): 86.24%
- Confirmation Plk1-Map (stable) % Inihibition (Plk1-Map interaction [3]; confirmation screen): 30.79%
- Confirmation Plk1-Map (stable) % Quench RLuc (Plk1-Map interaction [3]; confirmation screen): 81.37%
- Confirmation Plk1-Map (transient) % Inihibition (Plk1-Map interaction [4]): 30.06%
- Confirmation Plk1-Map (transient) % Quench RLuc (Plk1-Map interaction [4]): 74.57%
SMILES: Cc1cc(C(F)(F)F)cc(S(=O)(=O)CCOC(=O)c2cccc(Cl)c2)n1 [Cpd 16, 2-((6-methyl-4-(trifluoromethyl)pyridin-2-yl)sulfonyl)ethyl 3-chlorobenzoate]
- Mitotic index (%) (HeLa cells [1]): 15.73%
- 2 > pericentrin foci (percentage of cells) (HeLa cells [2]): 23 ± 11%
- Disorganized spindles (percentage of cells) (HeLa cells [2]): 58 ± 13%

— article PMC5118709, “Identification of Polo-like kinase 1 interaction inhibitors using a novel cell-based assay” (Scientific Reports, 2016)
